The text below walks through data of EP0630897A2, “3-Hydroxy-4-hydroxymethyl-2-methylene-cyclopentyl purines and pyrimidines” (BRISTOL-MYERS SQUIBB COMPANY, priority 1993, dated 1994).

Each structure is given as a SMILES string.

Common to all, as to assay type: cell-based
Data set [1] has as its system HSV-2 (herpes simplex virus type 2, strain 186). The data set can be described thus: Plaque reduction antiviral assay in WI-38 cell culture, HSV-2. To be noted: Human alphaherpesvirus 2, 96 h; WI-38 monolayers, at least 50% plaque reduction, 4 days incubation at 37°C; read-out: ID50(μM) for the following viruses HSV-2. As for the experimental part:
(§1) Assays were performed in cell culture systems to determine the concentrations of compounds that are effective in preventing several kinds of viral infections. HSV-1 (herpes simplex virus type 1, strain Schooler), HSV-2 (herpes simplex virus type 2, strain 186), VZV (varicella zoster virus, strain ELLEN), HCMV (human cytomegalovirus, strain AD 169). HSV-1, HSV-2, HCMV and VZV antiviral assays: Virus was adsorbed to WI-38 cell culture monolayers in 6 well culture plates (Costar, Cambridge, MA) for 1 hour prior to addition of maintenance medium containing duplicate dilutions of the test compound. Inhibition of plaque development was evaluated on fixed and stained monolayers after 4 days incubation at 37°C. for HSV-1 and HSV-2, and after 5 - 7 days incubation at 37°C. for HCMV and VZV. ID₅₀ values were determined from the drug concentration which conferred at least a 50% plaque reduction compared to virus controls.

A short description of data set [2]: Visible toxicity to the cell monolayers under the antiviral assay conditions. To be noted: human, wi-38 cells; concentration at which toxicity was visible. As for the experimental part: HSV-1, HSV-2, HCMV and VZV antiviral assays: Virus was adsorbed to WI-38 cell culture monolayers in 6 well culture plates (Costar, Cambridge, MA) for 1 hour prior to addition of maintenance medium containing duplicate dilutions of the test compound. Inhibition of plaque development was evaluated on fixed and stained monolayers after 4 days incubation at 37°C. for HSV-1 and HSV-2, and after 5 - 7 days incubation at 37°C. for HCMV and VZV. ID₅₀ values were determined from the drug concentration which conferred at least a 50% plaque reduction compared to virus controls.

For data set [3], the system named is VZV (varicella zoster virus, strain ELLEN). Kind of data set: Plaque reduction antiviral assay in WI-38 cell culture, VZV. The following applies: Human alphaherpesvirus 3; WI-38 monolayers, at least 50% plaque reduction, 5 - 7 days incubation at 37°C; read-out: ID50(μM) for the following viruses VZV. The protocol: as §1
Data set [4] concerns HCMV (human cytomegalovirus, strain AD 169). The data set can be described thus: Plaque reduction antiviral assay in WI-38 cell culture, HCMV. To be noted: Human betaherpesvirus 5; WI-38 monolayers, at least 50% plaque reduction, 5 - 7 days incubation at 37°C; read-out: ID50(μM) for the following viruses HCMV. The protocol:
as §1

The subject of data set [5] is HSV-1 (herpes simplex virus type 1, strain Schooler). Kind of data set: Plaque reduction antiviral assay in WI-38 cell culture, HSV-1. To be noted: Human alphaherpesvirus 1, 96 h; WI-38 monolayers, at least 50% plaque reduction, 4 days incubation at 37°C; read-out: ID50(μM) for the following viruses HSV-1. The protocol:
as §1

On to `C=C1C(O)C(CO)CC1n1cnc2c(=O)[nH]c(N)nc21` (stereo not drawn) [Example 1, (1α,3β,4α)-2-Amino-1,9-dihydro-9-[3-hydroxy-4-(hydroxymethyl)-2-methylenecyclopentyl]-6H-purin-6-one], for which the IC50 in data set [1] was 7 to 18 µM; in data set [3], 7 to 18 µM; in data set [4] it was 7 µM; in data set [5], 4 to 7 µM. The compound also had an MCC in data set [2] of 361 µM.
Take `C=C1C(O)C(CO)CC1n1cc(I)c(=O)[nH]c1=O` (stereo not drawn) [Example 4, (1α,3β,4α)-1-[3-Hydroxy-4-(hydroxymethyl)-2-methylenecyclopentyl]-5-iodo-2,4(1H,3H)-pyrimidinedione]: the IC50 in data set [1] was above 275 µM; in data set [3], 275 µM; in data set [4], 28 to 275 µM; in data set [5], above 275 µM. The MCC in data set [2] stood at 275 µM.
Consider `C=C1C(O)C(CO)CC1n1cc(C)c(=O)[nH]c1=O` (stereo not drawn) [Example 3, (1α,3β,4α)-1-[3-Hydroxy-4-(hydroxymethyl)-2-methylenecyclopentyl]-5-methyl-2,4(1H,3H)-pyrimidinedione], for which the IC50 in data set [1] is above 396 µM; in data set [3], 40 µM; in data set [4], above 396 µM; in data set [5] it was 100 to 200 µM. The MCC in data set [2] turned out to be 396 µM.
Consider `C=C1C(O)C(CO)CC1n1cnc2c(N)ncnc21` (stereo not drawn) [Example 2, (1α,2β,4α)-4-(6-Amino-9H-purin-9-yl)-2-hydroxy-3-methylenecyclopentanemethanol], for which the IC50 in data set [1] is 383 µM; in data set [3] it was above 38 µM; in data set [4], above 38 µM; in data set [5], 383 µM. This compound yielded an MCC in data set [2] of 383 µM.
`C=C1C(O)C(CO)CC1n1cc(C=CBr)c(=O)[nH]c1=O` (stereo not drawn) [Example 5, [1α(E),3β,4α]-5-[2-Bromoethenyl)-1-[3-hydroxy-4-(hydroxymethyl)-2-methylenecyclopentyl]-2,4-(1H,3H)-pyrimidinedione]: the IC50 was above 291 µM in data set [1], 1.5 to 3 µM in data set [3] and 291 µM in data set [5]. The MCC in data set [2] was determined as 291 µM.
